Experimental data from US20170209445A1, “KINASE INHIBITORS” (Respivert Limited, priority 2014, published 2017).
pIC50: −log10 of the molar value.

The molecules below were run on PBMCs (assay: LPS-induced IL-8 release in PBMC cells). Settings: Homo sapiens, LPS-stimulated PBMCs, read-out: IC50 Values for Inhibition of Cytokine Release PBMCs IL-8.
Type: cell-based
Method: Peripheral blood mononuclear cells (PBMCs) from healthy subjects are separated from whole blood using a density gradient (Lymphoprep, Axis-Shield Healthcare). The PBMCs are seeded in 96 well plates and treated with compounds at the desired concentration for 2 hours before addition of 1 ng/mL LPS (Escherichia Coli 0111:B4 from Sigma Aldrich) for 24 hours under normal tissue culture conditions (37° C., 5% CO2). The supernatant is harvested for determination of IL-8 and TNFα concentrations by sandwich ELISA (Duo-set, R&D systems) and read on the fluorescence microplate reader (Varioskan® Flash, ThermoFisher Scientific).

Row | Structure (SMILES) | pIC50
1 | COc1c(NC(=O)c2ccc(C)c(-c3ccc4nc(Nc5cccc(OS(C)(=O)=O)c5)ncc4c3)c2)cc(C(C)(C)C)cc1NS(C)(=O)=O [14(a), 3-((6-(5-((5-(tert-Butyl)-2-methoxy-3-(methylsulfonamido)phenyl)carbamoyl)-2-methylphenyl)quinazolin-2-yl)amino)phenyl methanesulfonate] | 7.51
2 | COc1cc(Nc2ncc3cc(-c4cc(C(=O)Nc5cc(C(C)(C)C)cc(NS(C)(=O)=O)c5OC)ccc4C)ccc3n2)ccc1C(=O)NCCC1CCN(C)CC1 [14(aa), 4-((6-(5-((5-(tert-Butyl)-2-methoxy-3-(methylsulfonamido)phenyl)carbamoyl)-2-methyl-phenyl)quinazolin-2-yl)amino)-2-methoxy-N-(2-(1-methylpiperidin-4-yl)ethyl)benzamide] | 8.02
3 | COc1cc(Nc2ncc3cc(-c4cc(C(=O)Nc5cc(C(C)(C)C)cc(NS(C)(=O)=O)c5OC)ccc4C)ccc3n2)ccc1C(=O)NCCCN1CCCOCC1 [14(ab), N-(3-(1,4-Oxazepan-4-yl)propyl)-4-((6-(5-((5-(tert-butyl)-2-methoxy-3-(methyl-sulfonamido)phenyl)carbamoyl)-2-methylphenyl)quinazolin-2-yl)amino)-2-methoxybenzamide] | 8.27
4 | COc1cc(Nc2ncc3cc(-c4cc(C(=O)Nc5cc(C(C)(C)C)cc(NS(C)(=O)=O)c5OC)ccc4C)ccc3n2)ccc1C(=O)NC1CCN(C)CC1 [14(ac), 4-((6-(5-((5-(tert-Butyl)-2-methoxy-3-(methylsulfonamido)phenyl)carbamoyl)-2-methylphenyl)quinazolin-2-yl)amino)-2-methoxy-N-(1-methylpiperidin-4-yl)benzamide] | 8.29
5 | COc1cc(Nc2ncc3cc(-c4cc(C(=O)Nc5cc(C(C)(C)C)cc(NS(C)(=O)=O)c5OC)ccc4C)ccc3n2)ccc1C(=O)NCCS(C)(=O)=O [14(ad), 4-((6-(5-((5-(tert-Butyl)-2-methoxy-3-(methylsulfonamido)phenyl)carbamoyl)-2-methylphenyl)quinazolin-2-yl)amino)-2-methoxy-N-(2-(methylsulfonyl)ethyl)benzamide] | 8.15
6 | COc1cc(Nc2ncc3cc(-c4cc(C(=O)Nc5cc(C(C)(C)C)cc(NS(C)(=O)=O)c5OC)ccc4C)ccc3n2)ccc1C(=O)NCCn1ccnc1C [14(ae), 4-((6-(5-((5-(tert-Butyl)-2-methoxy-3-(methylsulfonamido)phenyl)carbamoyl)-2-methyl-phenyl)quinazolin-2-yl)amino)-2-methoxy-N-(2-(2-methyl-1H-imidazol-1-yl)ethyl)benzamide] | 8.19
7 | COc1cc(Nc2ncc3cc(-c4cc(C(=O)Nc5cc(C(C)(C)C)cc(NS(C)(=O)=O)c5OC)ccc4C)ccc3n2)ccc1C(=O)NCCc1c[nH]cn1 [14(af), N-(2-(1H-Imidazol-4-yl)ethyl)-4-((6-(5-((5-(tert-butyl)-2-methoxy-3-(methylsulfonamido)-phenyl)carbamoyl)-2-methylphenyl)quinazolin-2-yl)amino)-2-methoxybenzamide] | 7.88
8 | COc1cc(Nc2ncc3cc(-c4cc(C(=O)Nc5cc(C(C)(C)C)cc(NS(C)(=O)=O)c5OC)ccc4C)ccc3n2)ccc1C(=O)NCCc1cccnc1 [14(ag), 4-((6-(5-((5-(tert-Butyl)-2-methoxy-3-(methylsulfonamido)phenyl)carbamoyl)-2-methylphenyl)quinazolin-2-yl)amino)-2-methoxy-N-(2-(pyridin-3-yl)ethyl)benzamide] | 7.94
9 | COc1cc(Nc2ncc3cc(-c4cc(C(=O)Nc5cc(C(C)(C)C)cc(NS(C)(=O)=O)c5OC)ccc4C)ccc3n2)ccc1C(=O)NCCN1CCC(O)CC1 [14(ah), 4-((6-(5-((5-(tert-Butyl)-2-methoxy-3-(methylsulfonamido)phenyl)carbamoyl)-2-methylphenyl)quinazolin-2-yl)amino)-N-(2-(4-hydroxypiperidin-1-yl)ethyl)-2-methoxybenzamide] | 8.10
10 | COc1cc(Nc2ncc3cc(-c4cc(C(=O)Nc5cc(C(C)(C)C)cc(NS(C)(=O)=O)c5OC)ccc4C)ccc3n2)ccc1C(=O)NCC1CCN(C)CC1 [14(ai), 4-((6-(5-((5-(tert-Butyl)-2-methoxy-3-(methylsulfonamido)phenyl)carbamoyl)-2-methylphenyl)quinazolin-2-yl)amino)-2-methoxy-N-((1-methylpiperidin-4-yl)methyl)benzamide] | 8.10
11 | COc1cc(Nc2ncc3cc(-c4cc(C(=O)Nc5cc(C(C)(C)C)cc(NS(C)(=O)=O)c5OC)ccc4C)ccc3n2)ccc1C(=O)NCCC1(O)CCN(C)CC1 [14(aj), 4-((6-(5-((5-(tert-Butyl)-2-methoxy-3-(methylsulfonamido)phenyl)carbamoyl)-2-methylphenyl)quinazolin-2-yl)amino)-N-(2-(4-hydroxy-1-methylpiperidin-4-yl)ethyl)-2-methoxybenzamide] | 8.03
12 | COc1cc(Nc2ncc3cc(-c4cc(C(=O)Nc5cc(C(C)(C)C)cc(NS(C)(=O)=O)c5OC)ccc4C)ccc3n2)ccc1C(=O)NCCN1CCCC1 [14(ak), 4-((6-(5-((5-(tert-Butyl)-2-methoxy-3-(methylsulfonamido)phenyl)carbamoyl)-2-methylphenyl)quinazolin-2-yl)amino)-2-methoxy-N-(2-(pyrrolidin-1-yl)ethyl)benzamide] | 7.83
13 | COc1cc(Nc2ncc3cc(-c4cc(C(=O)Nc5cc(C(C)(C)C)cc(NS(C)(=O)=O)c5OC)ccc4C)ccc3n2)ccc1C(=O)NCCN1CCN(C)C(C)(C)C1 [14(al), 4-((6-(5-((5-(tert-Butyl)-2-methoxy-3-(methylsulfonamido)phenyl)carbamoyl)-2-methyl-phenyl)quinazolin-2-yl)amino)-2-methoxy-N-(2-(3,3,4-trimethylpiperazin-1-yl)ethyl)benzamide] | 8.08
14 | COc1cc(Nc2ncc3cc(-c4cc(C(=O)Nc5cc(C(C)(C)C)cc(NS(C)(=O)=O)c5OC)ccc4C)ccc3n2)ccc1C(=O)NCCN1CCOCC1 [14(am), 4-((6-(5-((5-(tert-Butyl)-2-methoxy-3-(methylsulfonamido)phenyl)carbamoyl)-2-methylphenyl)quinazolin-2-yl)amino)-2-methoxy-N-(2-morpholinoethyl)benzamide] | 7.71
15 | COc1cc(Nc2ncc3cc(-c4cc(C(=O)Nc5cc(C(C)(C)C)cc(NS(C)(=O)=O)c5OC)ccc4C)ccc3n2)ccc1C(=O)NC1CCS(=O)(=O)CC1 [14(an), 4-((6-(5-((5-(tert-Butyl)-2-methoxy-3-(methylsulfonamido)phenyl)carbamoyl)-2-methylphenyl)quinazolin-2-yl)amino)-N-(1,1-dioxidotetrahydro-2H-thiopyran-4-yl)-2-methoxybenzamide] | 7.91
16 | COc1c(NC(=O)c2ccc(C)c(-c3ccc4nc(Nc5cc(C#N)cc(OCCN6CCOCC6)c5)ncc4c3)c2)cc(C(C)(C)C)cc1NS(C)(=O)=O [14(b), N-(5-(tert-Butyl)-2-methoxy-3-(methylsulfonamido)phenyl)-3-(2-((3-cyano-5-(2-morpholinoethoxy)phenyl)amino)quinazolin-6-yl)-4-methylbenzamide] | 7.82
17 | COc1cc(Nc2ncc3cc(-c4cc(C(=O)Nc5cc(C(C)(C)C)cc(NS(C)(=O)=O)c5OC)ccc4C)ccc3n2)cc(S(=O)(=O)N(C)CCN2CCOCC2)c1 [14(c), N-(5-(tert-Butyl)-2-methoxy-3-(methylsulfonamido)phenyl)-3-(2-((3-methoxy-5-(N-methyl-N-(2-morpholinoethyl)sulfamoyl)phenyl)amino)quinazolin-6-yl)-4-methylbenzamide] | 7.73
18 | COc1c(NC(=O)c2ccc(C)c(-c3ccc4nc(Nc5cccc(C(=O)NCCN6CCOCC6)c5)ncc4c3)c2)cc(C(C)(C)C)cc1NS(C)(=O)=O [14(d), N-(5-(tert-Butyl)-2-methoxy-3-(methylsulfonamido)phenyl)-4-methyl-3-(2-((3-((2-morpholinoethyl)carbamoyl)phenyl)amino)quinazolin-6-yl)benzamide] | 8.08
19 | COc1cc(Nc2ncc3cc(-c4cc(C(=O)Nc5cc(C(C)(C)C)cc(NS(C)(=O)=O)c5OC)ccc4C)ccc3n2)cc(S(=O)(=O)N(C)CCCN2CCOCC2)c1 [14(e), N-(5-(tert-Butyl)-2-methoxy-3-(methylsulfonamido)phenyl)-3-(2-((3-methoxy-5-(N-methyl-N-(3-morpholinopropyl)sulfamoyl)phenyl)amino)quinazolin-6-yl)-4-methylbenzamide] | 7.69
20 | COCCOCCOCCOc1cc(C#N)cc(Nc2ncc3cc(-c4cc(C(=O)Nc5cc(C(C)(C)C)cc(NS(C)(=O)=O)c5OC)ccc4C)ccc3n2)c1 [14(f), N-(5-(tert-Butyl)-2-methoxy-3-(methylsulfonamido)phenyl)-3-(2-((3-cyano-5-(2-(2-(2-methoxyethoxy)ethoxy)ethoxy)phenyl)amino)quinazolin-6-yl)-4-methylbenzamide] | 7.98
21 | COc1c(NC(=O)c2ccc(C)c(-c3ccc4nc(Nc5cccc(P(C)(C)=O)c5)ncc4c3)c2)cc(C(C)(C)C)cc1NS(C)(=O)=O [14(h), N-(5-(tert-Butyl)-2-methoxy-3-(methylsulfonamido)phenyl)-3-(2-((3-(dimethylphosphoryl)phenyl)amino)quinazolin-6-yl)-4-methylbenzamide] | 8.03
22 | COc1c(NC(=O)c2ccc(C)c(-c3ccc4nc(Nc5ccc(OS(C)(=O)=O)cc5)ncc4c3)c2)cc(C(C)(C)C)cc1NS(C)(=O)=O [14(j), 4-((6-(5-((5-(tert-Butyl)-2-methoxy-3-(methylsulfonamido)phenyl)carbamoyl)-2-methylphenyl)quinazolin-2-yl)amino)phenyl methanesulfonate] | 8.04
23 | C#Cc1cc(Nc2ncc3cc(-c4cc(C(=O)Nc5cc(C(C)(C)C)cc(NS(C)(=O)=O)c5OC)ccc4C)ccc3n2)cc(OCCOCCOCCOC)c1 [14(k), N-(5-(tert-Butyl)-2-methoxy-3-(methylsulfonamido)phenyl)-3-(2-((3-ethynyl-5-(2-(2-(2-methoxyethoxy)ethoxy)ethoxy)phenyl)amino)quinazolin-6-yl)-4-methylbenzamide] | 7.78
